Data taken from patent US8604172B2, “Humanized antibody compositions and methods for binding lysophosphatidic acid” (Lpath, Inc., priority 2009, dated 2013).
Marks after values point to notes of the source that are not given here.

Tests used:
SKOV3 tumor = assay: SKOV3 ovarian tumor progression in nude mice; type: in vivo; details: Mean ± S.E.
Protocol: Human mAb LT3015 reduced ovarian tumor SKOV3 progression and circulating cytokines in biological fluids. Nude mice were engrafted with either 10 mg/kg LT3015, vehicle, or 2 mg/kg paclitaxel (Taxol). After 56 days, mice were sacrificed and the peritoneal cavities were analyzed for tumor burden and ascites fluid accumulation. Tumors were harvested and final tumor weights were determined along with ascites volumes. Data were analyzed by ANOVA and student's t-test analysis. […] Serum and ascites levels of IL-6, IL-8, GM-CSF and VEGF were measured using ELISA kits from R&D systems, Minneapolis Minn.

[1] = test system: IL-8 release in SKOV3 cells; assay: LPA-induced IL-8 release in SKOV3 cells; type: cell-based, human; details: 1 uM LPA alone
Protocol: (§1) Anti-LPA antibodies inhibit the LPA-dependant release of human CXCL8/IL-8 in conditioned media of SKOV3 ovarian cells. SKOV3 cells (Lot No 4255558, passage 14) were harvested with 2 ml of 1× Trypsin EDTA (Mediatech Inc, Cat. No 25-053-CV) and resuspended in 8 ml of complete medium (10% FBS, Mediatech Inc. Cat. no 35-011-CV). The cells were centrifuged for 5 min ([…]) and re-suspended in 5 ml of complete medium. Cells were counted in duplicate with 0.4% Trypan blue (10 ul cells plus 90 ul Trypan blue, Invitrogen, Cat. No 15250-061) using a hemocytometer. In a 96-well plate, 1×10^5 cells per well were seeded (final volume 100 ul/well). The cells were allowed to attach and form a confluent monolayer by incubating overnight at 37° C. On the following day, cells were gently washed two times with minimum media (1 mg/ml BSA in McCoy's medium with L-glutamine, Mediatech, Cat. No 10-050-CV). The media was adjusted to 1% penicillin/streptomycin (Mediatech, Cat. No 30-002 CI) and 2.2 g/L sodium-bicarbonate (Mediatech, Cat. No 25-035-CI). Next, the cells were serum-starved at 37° C. for exactly 24 h, followed by cytokine stimulation with 1 uM C18:1 LPA (Avanti, Cat. No 857130) dissolved in 1 mg/ml BSA/PBS (Calbiochem, Cat. No 126575) which was pre-incubated in presence or absence of humanized LPA antibody LT3015 (150, 300 or 600 ug/mL) for one hour. Treatments were then added to the cells. After 22 h of cytokine stimulation, the cells were centrifuged for 5 min (13,500 rpm) at 4° C. and the supernatants (cell-conditioned media) were collected. The CXCL8/IL-8 levels in each supernatant were measured using the Quantikine human CXCL8/IL-8 ELISA kit according to vendor instructions (R&D Systems, Minneapolis Minn., Cat. No D8000C). The IL-6 levels were measured by ELISA using the Quantikine human IL-6 immunoassay kit (R&D systems, Cat. No. D6050). Data were analyzed by one-way ANOVA followed by Bonferroni's post test and expressed as human IL-8 or human IL-6 fold increase.

IL-8 in Caki-1 cells = assay: LPA-induced IL-8 production in Caki-1 cells; type: cell-based, human; details: 18:1 LPA (0.2 mM), non-treated cells, average
Protocol: Three anti-LPA mAbs (B3, B7 and B58) were tested for their abilities to reduce in vitro IL-8 production compared to a non-specific antibody (NS). Caki-1 cells were seeded in 96 well plates and grown to confluency. After overnight serum starvation, cells were treated with 18:1 LPA (0.2 mM) with or without anti-LPA mAb B3, B7, B58 or NS (Non-Specific). After 24 h, cultured supernatants of renal cancer cells (Caki-1), treated with or without LPA and in presence of increasing concentrations of the anti-LPA mAbs B3, B7 and B58, were collected and analyzed for IL-8 levels using a commercially available ELISA kit (Human Quantikine Kit, R&D Systems, Minneapolis, Minn.). […] The inhibition of IL-8 release by the anti-LPA mAbs was also observed in other cancerous cell lines such as the pancreatic cell line Panc-1.

[2] = test system: IL-6 release in SKOV3 cells; assay: LPA-induced IL-6 release in SKOV3 cells; type: cell-based, human; details: 1 uM LPA alone
Protocol: as §1, with “The media was adjusted to 1% penicillin/streptomycin (Mediatech, Cat. No 30-002 CI) and 2.2 g/L sodium-bicarbonate (Mediatech, Cat. No 25-035-CI). Next, the cells were serum-starved at 37° C. for exactly 24 h, followed by cytokine stimulation with 1 uM C18:1 LPA (Avanti, Cat. No 857130) dissolved in 1 mg/ml BSA/PBS (Calbiochem, Cat. No 126575) which was pre-incubated in presence or absence of humanized LPA antibody LT3015 (150, 300 or 600 ug/mL) for one hour. Treatments were then added to the cells. After 22 h of cytokine stimulation, the cells were centrifuged for 5 min (13,500 rpm) at 4° C. and the supernatants (cell-conditioned media) were collected.” left out

SKOV3 cells = assay: Scratch assay, SKOV3 tumor cell migration; type: cell-based, human; details: 17 hr
Protocol: SKOV3 cells were plated at 15,000 cells per well in a 96-well plate. The following day the cells were serum starved in minimal media (McCoy's Media 5a, adjusted to contain L-Glutamine, 2.2 g/L Sodium Bicarbonate, 1% penicillin/streptomycin and 1 mg/ml BSA) for 24 hrs. At time 0 cells were scratched with a p200 pipet tip down the center of each well, washed with minimal media and pictures were taken prior to treatment. Cells were then treated with LPA (C18:1) at 0.2 uM, 1.0 uM and 10 uM concentrations which were pre-incubated at 37° C. with […] in the presence or absence of antibody at 150 ug/ml. Positive control (10% FBS treated cells) and antibody alone added to 1 uM LPA, were also tested. Cells were stimulated for 17 hrs at 37° C. in a 5% CO2 incubator. Pictures were taken again 17 hr post-treatment and % wound closure was measured by adjusting pictures to the same size and measuring the width of the scratch at time 0 and time 17 hr with a ruler. Data were analyzed by Student's t-test.

| Compound | Ascites volume (SKOV3 tumor) [mL] | Human IL-8 Fold Increase (approx). [1] | increase of IL-8 expression (IL-8 in Caki-1 cells) [%] | Human IL-6 Fold Increase (approx). [2] | Percent wound closure (approx.) (SKOV3 cells; 0.2 uM LPA) [%] | Percent wound closure (approx.) (SKOV3 cells; 1.0 uM LPA) [%] | Percent wound closure (approx.) (SKOV3 cells; 10 uM LPA) [%] |
| --- | --- | --- | --- | --- | --- | --- | --- |
| CC(=O)O[C@H]1C(=O)[C@@]2(C)[C@H]([C@H](OC(=O)c3ccccc3)[C@]3(O)C[C@H](OC(=O)[C@H](O)[C@@H](NC(=O)c4ccccc4)c4ccccc4)C(C)=C1C3(C)C)[C@]1(OC(C)=O)CO[C@@H]1C[C@@H]2O [Taxol, paclitaxel, reference compound] | 0.2 ± 0.0 | – | – | – | – | – | – |
| Lysophosphatidic acid [LPA, reference compound] | – | ~7.1## | 100 | ~29## | ~65 | ~81 | ~89 |
